Assay results as given in patent US9987216B2, “Plant fat composition for cosmetic preparation” (priority 2016, dated 2018).

Assays:
[1] = Journal of the American College of Toxicology Vol. 6, No. 3, 1987; cited from earlier work
[2] = test system: skin on the inner side of the upper arm; assay: Skin irritation in the test subjects of the TEWL test; assay type: in vivo; conditions: all test subjects (n=6), 100 μl on the skin
Procedure: 100 μl of each product was applied to the skin on the inner side of the upper arm and kept absorbed into the skin for 5 minutes. The transepidermal water loss was then measured at predetermined intervals. In addition, all the test subjects (n=6) had no irritation to both the plant fat composition of the present invention and the plant-derived squalane.

[3] = DPPH radical scavenging (antioxidative effect); conditions: concentration of 10%; 30 minutes in the dark, absorbance 540 nm
Procedure: DPPH (2,2-diphenyl-1-picryl-hydrazyl) is a purple-colored stable free radical substance that receives hydrogens from an antioxidant to undergo decolorization. Upon exposure to an antioxidant, the DPPH acts as a […] the antioxidant and becomes removed of free radicals, resulting in decolorization, which makes it possible to evaluate the radical-scavenging activity.
Vitamin E (acetate) was used as a control.
(a) Prepare a 0.2 mM DPPH reagent dissolved in n-hexane.
(b) Prepare test samples by concentration.
(c) Add 100 μl of the reagent and 100 μl of each sample in four wells of a 96-well test plate.
(d) Add 100 μl of the reagent and 100 μl of a solvent in four wells to remove the blank value.
(e) Kept in the dark for 30 minutes at the room temperature.
(f) Measure the absorbance at 540 nm with an ELISA reader (TECAN microplate reader).
Analysis Method (Calculation Method) DPPH radical scavenging ability (%)=[1−(absorbance of sample/absorbance of blank)]×100

SMILES: CCCCCCCCCCCC(=O)O [lauric acid]
- safety in use for cosmetic formulations [1]: safe

SMILES: CCCCCCCCCCCCCC(=O)O [myristic acid]
- safety in use for cosmetic formulations [1]: safe

SMILES: CCCCCCCC/C=C\CCCCCCCC(=O)O [oleic acid]
- safety in use for cosmetic formulations [1]: safe

SMILES: CCCCCCCCCCCCCCCC(=O)O [palmitic acid]
- safety in use for cosmetic formulations [1]: safe

SMILES: CC(C)CCCC(C)CCCC(C)CCCCC(C)CCCC(C)CCCC(C)C (stereo not shown) [plant-derived squalane, squalane]
- skin irritation [2]: no irritation

SMILES: CCCCCCCCCCCCCCCCCC(=O)O [stearic acid]
- safety in use for cosmetic formulations [1]: safe

SMILES: CC(=O)Oc1c(C)c(C)c2c(c1C)CCC(C)(CCC[C@H](C)CCC[C@H](C)CCCC(C)C)O2 (stereo partly shown) [vitamin E, Vitamin E (acetate)]
- DPPH radical scavenging activity [3]: 5%
